Consider 1 compound from patent US11793782B2, “Therapeutic agents for neurodegenerative diseases” (priority 2017, dated 2023).

Structures are written as SMILES.

Data set [1] deals with Hexb−/− mouse (Sandhoff disease model). The experiment in a line: Lifespan of Sandhoff mouse. Format: in vivo. The procedure: This study made use of a mouse model of Sandhoff disease, the Hexb^−/− mouse, as descrbed in Jeyakumar et al. (Jeyakumar, M. et al. (1999) Proc. Natl. Acad. Sci. USA 96: 6388-6393).
In FIG. 7A, acetyl-leucine-treated mice were treated with 0.1 g/kg acetyl-leucine from 3 weeks of age. The asterisks (*) indicates a p-value of <0.05 vs untreated Sandhoff mice. Data is average of n=6 mice per group. Without treatment, the median survival time of Sandhoff mice was 112 days. Treatment with acetyl-leucine (0.1 g/kg body weight since 3 weeks of age) increased the median lifespan to 120 days.

For data set [2], the system named is Tay-Sachs disease patient fibroblasts. Nature of the data set: Glycosphingolipid (GSL) levels by HPLC, Tay-Sachs fibroblasts. The format is cell-based, human. The following applies: 1 mM for 6 days, p<0.05.
Data set [3] deals with GM1 Gangliosidosis patient. Nature of the data set: Case study, GM1 Gangliosidosis patient. The format is in vivo, human. The note with it: after one month. The source says:
The patient in this case study was a person who was genetically diagnosed with GM1 Gangliosidosis and who was not able to stand or walk by themself, was very limited in daily activities (eating, washing, dressing themself was not possible), and had ocular movement disorder, anarthria, and distinct problems in cognitive function and concentration (neurological examination was not possible).
The patient was started on therapy with acetyl-leucine at a dose of 1.5 g per day for the first week, followed by a dose of 3 g per day for the second week onwards.

Data set [4] deals with restless leg syndrome patients. The experiment in a line: Case studies, restless legs syndrome (IRLS score). Set-up: key to IRLS: IRLS 0 (no symptoms) to 40; >30 very severe, ≤10 mild. The format is in vivo, human. An excerpt: A widely reported rating scale known as the International Restless Leg Syndrome Study Group Rating Scale (“IRLS”) was developed by the International Restless Legs Syndrome Study Group (“IRLSSG”) (http://www.irlssg.org/) (Walters et al., Validation of the International Restless Legs Syndrome Study Group rating scale for restless legs syndrome. Sleep medicine. 2003 Apr. 1; 4(2):121-32). The IRLS is a 10-item scale with scores ranging from 0 (no symptoms) to 40. Scores >30 are considered very severe, severe (Score 21-30), moderate (scores 11-20) and ≤10, mild. Use of the scale is common for clinical assessment, research and therapeutic trials with RLS. In one embodiment, treatment with leucine, acetyl-leucine, or a pharmaceutically acceptable salt thereof as described herein decreases the subject's International Restless Leg Syndrome Study Group Rating Scale (“IRLS”) compared to a baseline. In one embodiment, the IRLS is reduced compared to baseline by at least 10%, at least 20%, at least 30%, at least 40%, or at least 50%. In one embodiment, the IRLS is reduced by at least 60%, at least 70%, at least 80%, at least 90%, or 100%.
The patient in this case study was a person showing proximal weakness of the so lower limb. […] Upon consultation, they reported no sensory symptoms but complained of a restless leg syndrome at night and during resting periods of the day, occurring over the course of the last two years. Pre-treatment with dopamine agonist were without symptom relief. Serum creatine kinase activity was only mildly elevated at up to 400 IU/L. The patient was evaluated using the RLS diagnostic index (RLS-DI) (see Walters et al., Sleep Med 2003; 4(2):121-132;). The patient's International Restless Legs Syndrome Rating Scale score (IRLS) was 36, and thus a severe RLS was diagnosed. […] Re-introduction of the treatment re-declined the score to 8 after 2 weeks. Continuation of treatment over more than 22 weeks stabilized the IRLS score at 8.
The patient in this case study was a person showing proximal weakness of the lower limb. […] Upon consultation, they reported no sensory symptoms but complained of a restless leg syndrome at night and during resting periods of the day, occurring over the course of the last eight years. […] Serum creatine kinase activity was mildly elevated at 300 IU/L. Iron measurements and all additional lab investigations were normal. The patient was evaluated using the RLS-DI and the patient's IRLS was 32, and thus a moderate to severe RLS was diagnosed. […] Continuation of treatment over more than 28 weeks stabilized the IRLS score at 8.
The patient in this case study was a person showing mild proximal weakness of the upper and lower limbs slowly progressive. The patient had been diagnosed (genetically confirmed) with McArdle myopathy about 16 years ago. Upon consultation, they reported no sensory symptoms but complained about a severe fatigue and reduced stamina. The patient further reported a restless leg syndrome at night and during resting periods of the day, occurring over the course of the last 12 years. […] Serum creatine kinase activity was mildly elevated at 200 IU/L; however, the patient had 5 episodes of rhabdomyolysis during the past 20 years. Repeated iron measurements and all additional lab investigations were normal. The patient was evaluated using the RLS-DI and the patient's IRLS was 34, and thus a severe RLS was diagnosed. […] Continuation of treatment over more than 30 weeks stabilized the IRLS score at 10. In addition, the patient's fatigue declined (Fatigue Severit Scale: 9 (minimum) to 63 (maximum)) from 53 to 28.

Data set [5] relates to downbeat nystagmus patients. The experiment in a line: Case studies, downbeat nystagmus patients. Format: in vivo, human. The note with it: downbeat nystagmus Patient 2.
Data set [6] has as its system vertigo patients. The following applies: used in France to treat acute vertigo since 1957; cited from earlier work.

As to `CC(=O)NC(CC(C)C)C(=O)O` (racemic) [acetyl-DL-leucine], in data set [1] (Sandhoff mice, 0.1 g/kg body weight since 3 weeks of age, untreated 112 days), the Median lifespan was 120 days. The Lifespan entry in data set [1] (Sandhoff mouse, 0.1 g/kg from 3 weeks of age, p<0.05 vs untreated) is on record as “statistically significant increase in the lifespan”. Moreover, in data set [2], the “GSL storage (decrease)” value is given as “statistically significant”. Further, the SARA in data set [3] (3 g per day, baseline 35/40) is reported as 35/40. Also, in data set [3], the Clinical observation result is “stable general condition, increased gait (more fluent), and stable stance in natural position”. In addition, in data set [3] (baseline 15), the mRDS was 16. The compound also showed an EQ-5D-5L visual scale in data set [3] (baseline 50) of 60. The IRLS in data set [4] (RLS Patient 1 (myotonic dystrophy type 2), 5 g per day, within 14 days, before 36) was 26; in data set [4] (RLS Patient 1, 2 weeks after re-introduction of the treatment), 8; in data set [4] (RLS Patient 1, after another 5 weeks) it was 9; in data set [4] (RLS Patient 1, continuation of treatment over more than 22 weeks), 8; in data set [4] (RLS Patient 1, interruption of 4 weeks after week 12 of the treatment) it was 28; in data set [4] (RLS Patient 2 (myotonic dystrophy type 2), 5 g per day, within 14 days, before 32) it was 22. In addition, the IRLS turned out to be 7 in data set [4] (RLS Patient 2, after another 5 weeks); 8 in data set [4] (RLS Patient 2, continuation of treatment over more than 28 weeks); 20 in data set [4] (RLS Patient 3 (McArdle myopathy), 5 g per day, within 21 days, before 34); 10 in data set [4] (RLS Patient 3, after another 10 weeks); 10 in data set [4] (RLS Patient 3, continuation of treatment over more than 30 weeks). In addition, the “Fatigue Severit Scale” value in data set [4] (RLS Patient 3, scale 9 (minimum) to 63 (maximum), declined from 53) is on record as 28. The “Self-chosen velocity (gait analysis)” value in data set [5] (about one month after stopping treatment, decrease from 85) came out at 72 cm/s; in data set [5] (on treatment, increase from 56), 85 cm/s. The Maximal gait velocity in data set [5] (about one month after stopping treatment, decrease from 155) came to 113 cm/s. Besides, in data set [6], the Safety profile entry is “excellent safety profile”.
